Test results: PubChem BioAssay (NCI)
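Five concentrations, 48 hours, 96-well plates. GI50: concentration for 50% inhibition of growth. The concentration for full growth arrest is given as TGI.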

Tests used:
Test in all cases: DTP human tumour cell line panel, 48 h; in the data active means GI50 below about 0.43 µM; inactive means the rest
U251 CNS = system: U251 CNS
SNB-19 CNS = system: SNB-19 CNS
SK-MEL-28 melanoma = system: SK-MEL-28 melanoma
HCC-2998 colon = system: HCC-2998 colon
RPMI-8226 leukemia = system: RPMI-8226 leukemia
MCF7 breast = system: MCF7 breast
T-47D breast = system: T-47D breast
HT29 colon = system: HT29 colon
PC-3 prostate = system: PC-3 prostate
MALME-3M melanoma = system: MALME-3M melanoma
KM12 colon = system: KM12 colon
SF-539 CNS = system: SF-539 CNS
ACHN renal = system: ACHN renal
HOP-62 NSCLC = system: HOP-62 NSCLC
DU-145 prostate = system: DU-145 prostate
UO-31 renal = system: UO-31 renal
MDA-MB-231 breast = system: MDA-MB-231 breast
HOP-92 NSCLC = system: HOP-92 NSCLC
MDA-MB-435 = system: MDA-MB-435
M14 melanoma = system: M14 melanoma
NCI-H460 lung = system: NCI-H460 lung
OVCAR-3 ovarian = system: OVCAR-3 ovarian
SK-MEL-2 melanoma = system: SK-MEL-2 melanoma
UACC-62 melanoma = system: UACC-62 melanoma
LOX IMVI melanoma = system: LOX IMVI melanoma
SR leukemia = system: SR leukemia
HCT-116 colon = system: HCT-116 colon
MOLT-4 leukemia = system: MOLT-4 leukemia
CAKI-1 renal = system: CAKI-1 renal
786-0 renal = system: 786-0 renal
A549 NSCLC = system: A549 NSCLC
NCI-H23 lung = system: NCI-H23 lung
A498 renal = system: A498 renal
OVCAR-4 ovarian = system: OVCAR-4 ovarian
SNB-75 CNS = system: SNB-75 CNS
NCI/ADR-RES ovarian = system: NCI/ADR-RES ovarian
HL-60(TB) leukemia = system: HL-60(TB) leukemia
COLO 205 colon = system: COLO 205 colon
HCT-15 colon = system: HCT-15 colon
SF-295 CNS = system: SF-295 CNS
SK-MEL-5 melanoma = system: SK-MEL-5 melanoma
K-562 leukemia = system: K-562 leukemia
TK-10 renal = system: TK-10 renal
OVCAR-5 ovarian = system: OVCAR-5 ovarian
RXF 393 renal = system: RXF 393 renal
EKVX NSCLC = system: EKVX NSCLC
NCI-H226 lung = system: NCI-H226 lung
SW-620 colon = system: SW-620 colon
BT-549 breast = system: BT-549 breast
SK-OV-3 ovarian = system: SK-OV-3 ovarian
UACC-257 melanoma = system: UACC-257 melanoma
SF-268 CNS = system: SF-268 CNS
OVCAR-8 ovarian = system: OVCAR-8 ovarian
CCRF-CEM leukemia = system: CCRF-CEM leukemia
SN12C renal = system: SN12C renal
NCI-H522 lung = system: NCI-H522 lung
IGROV1 ovarian = system: IGROV1 ovarian

COc1ccc(-c2cc(-c3ccc(Nc4ccnc5cc(C(F)(F)F)ccc45)cc3)nc(N)c2C#N)cc1
90 µM: TGI (HOP-92 NSCLC)
78.7 µM: TGI (HCT-116 colon)
> 100 µM: TGI (U251 CNS) | TGI (SNB-19 CNS) | TGI (SK-MEL-28 melanoma) | TGI (HCC-2998 colon) | TGI (RPMI-8226 leukemia) | TGI (MCF7 breast) | TGI (T-47D breast) | TGI (HT29 colon) | TGI (PC-3 prostate) | TGI (MALME-3M melanoma) | TGI (KM12 colon) | TGI (SF-539 CNS) | TGI (ACHN renal) | TGI (HOP-62 NSCLC) | TGI (DU-145 prostate) | TGI (UO-31 renal) | TGI (MDA-MB-231 breast) | TGI (MDA-MB-435) | TGI (M14 melanoma) | TGI (NCI-H460 lung) | TGI (SK-MEL-2 melanoma) | TGI (UACC-62 melanoma) | TGI (LOX IMVI melanoma) | TGI (SR leukemia) | TGI (MOLT-4 leukemia) | TGI (CAKI-1 renal) | TGI (786-0 renal) | TGI (A549 NSCLC) | TGI (NCI-H23 lung) | TGI (A498 renal) | TGI (OVCAR-4 ovarian) | TGI (NCI/ADR-RES ovarian) | TGI (HL-60(TB) leukemia) | TGI (COLO 205 colon) | TGI (HCT-15 colon) | TGI (SF-295 CNS) | TGI (SK-MEL-5 melanoma) | TGI (K-562 leukemia) | TGI (TK-10 renal) | TGI (OVCAR-5 ovarian) | TGI (RXF 393 renal) | TGI (EKVX NSCLC) | TGI (NCI-H226 lung) | TGI (SW-620 colon) | TGI (BT-549 breast) | TGI (SK-OV-3 ovarian)
71.6 µM: TGI (SNB-75 CNS)
33.7 µM: TGI (OVCAR-3 ovarian)

Cc1cc(C)c(C#N)c(SC(=S)NC(=O)c2ccc(Cl)cc2)n1
> 100 µM: TGI (U251 CNS) | TGI (SNB-19 CNS) | TGI (UACC-257 melanoma) | TGI (SK-MEL-28 melanoma) | TGI (HCC-2998 colon) | TGI (SF-268 CNS) | TGI (RPMI-8226 leukemia) | TGI (MCF7 breast) | TGI (T-47D breast) | TGI (PC-3 prostate) | TGI (KM12 colon) | TGI (ACHN renal) | TGI (HOP-62 NSCLC) | TGI (DU-145 prostate) | TGI (UO-31 renal) | TGI (MDA-MB-231 breast) | TGI (HOP-92 NSCLC) | TGI (MDA-MB-435) | TGI (M14 melanoma) | TGI (OVCAR-8 ovarian) | TGI (NCI-H460 lung) | TGI (OVCAR-3 ovarian) | TGI (SK-MEL-2 melanoma) | TGI (UACC-62 melanoma) | TGI (LOX IMVI melanoma) | TGI (HCT-116 colon) | TGI (CAKI-1 renal) | TGI (786-0 renal) | TGI (A549 NSCLC) | TGI (NCI-H23 lung) | TGI (A498 renal) | TGI (OVCAR-4 ovarian) | TGI (SNB-75 CNS) | TGI (NCI/ADR-RES ovarian) | TGI (COLO 205 colon) | TGI (HCT-15 colon) | TGI (CCRF-CEM leukemia) | TGI (SF-295 CNS) | TGI (SK-MEL-5 melanoma) | TGI (TK-10 renal) | TGI (OVCAR-5 ovarian) | TGI (RXF 393 renal) | TGI (EKVX NSCLC) | TGI (SW-620 colon) | TGI (BT-549 breast) | TGI (SK-OV-3 ovarian)

Cc1ccc(C2c3c(n(C)c(=O)n(C)c3=O)OC(N(C)C)(N(C)C)C2(F)F)cc1 (stereo not drawn)
> 100 µM: TGI (U251 CNS) | TGI (SNB-19 CNS) | TGI (UACC-257 melanoma) | TGI (SK-MEL-28 melanoma) | TGI (HCC-2998 colon) | TGI (SF-268 CNS) | TGI (RPMI-8226 leukemia) | TGI (MCF7 breast) | TGI (T-47D breast) | TGI (PC-3 prostate) | TGI (KM12 colon) | TGI (ACHN renal) | TGI (HOP-62 NSCLC) | TGI (DU-145 prostate) | TGI (UO-31 renal) | TGI (MDA-MB-231 breast) | TGI (HOP-92 NSCLC) | TGI (MDA-MB-435) | TGI (M14 melanoma) | TGI (NCI-H460 lung) | TGI (OVCAR-3 ovarian) | TGI (SK-MEL-2 melanoma) | TGI (UACC-62 melanoma) | TGI (LOX IMVI melanoma) | TGI (HCT-116 colon) | TGI (MOLT-4 leukemia) | TGI (CAKI-1 renal) | TGI (786-0 renal) | TGI (A549 NSCLC) | TGI (NCI-H23 lung) | TGI (A498 renal) | TGI (OVCAR-4 ovarian) | TGI (SNB-75 CNS) | TGI (NCI/ADR-RES ovarian) | TGI (COLO 205 colon) | TGI (HCT-15 colon) | TGI (CCRF-CEM leukemia) | TGI (SF-295 CNS) | TGI (SK-MEL-5 melanoma) | TGI (K-562 leukemia) | TGI (TK-10 renal) | TGI (OVCAR-5 ovarian) | TGI (RXF 393 renal) | TGI (EKVX NSCLC) | TGI (NCI-H226 lung) | TGI (SW-620 colon) | TGI (BT-549 breast) | TGI (SK-OV-3 ovarian)

Cc1c(C(N)=O)sc2c1c(=O)n(Cc1ccccc1)c1nnc(SCC(=O)Nc3ccc(Cl)cc3)n21
15.1 µM: TGI (T-47D breast)
> 100 µM: TGI (SNB-19 CNS) | TGI (UACC-257 melanoma) | TGI (HCC-2998 colon) | TGI (SF-268 CNS) | TGI (MCF7 breast) | TGI (HT29 colon) | TGI (PC-3 prostate) | TGI (KM12 colon) | TGI (ACHN renal) | TGI (DU-145 prostate) | TGI (UO-31 renal) | TGI (MDA-MB-435) | TGI (M14 melanoma) | TGI (OVCAR-8 ovarian) | TGI (NCI-H460 lung) | TGI (SK-MEL-2 melanoma) | TGI (UACC-62 melanoma) | TGI (LOX IMVI melanoma) | TGI (MOLT-4 leukemia) | TGI (CAKI-1 renal) | TGI (SN12C renal) | TGI (A498 renal) | TGI (NCI-H522 lung) | TGI (NCI/ADR-RES ovarian) | TGI (HL-60(TB) leukemia) | TGI (COLO 205 colon) | TGI (HCT-15 colon) | TGI (CCRF-CEM leukemia) | TGI (IGROV1 ovarian) | TGI (K-562 leukemia) | TGI (OVCAR-5 ovarian) | TGI (EKVX NSCLC) | TGI (SW-620 colon) | TGI (BT-549 breast) | TGI (SK-OV-3 ovarian)
73.8 µM: TGI (SF-295 CNS)
24 µM: TGI (SK-MEL-5 melanoma)
19.5 µM: TGI (U251 CNS)
6.33 µM: TGI (SF-539 CNS)
14 µM: TGI (SR leukemia)
inactive: GI50 (U251 CNS) 4.14 µM | GI50 (SNB-19 CNS) 63.5 µM | GI50 (UACC-257 melanoma) 3.44 µM | GI50 (HCC-2998 colon) 5.56 µM | GI50 (SF-268 CNS) 8.05 µM | GI50 (MCF7 breast) 6.61 µM | GI50 (T-47D breast) 3.52 µM | GI50 (HT29 colon) > 100 µM | GI50 (PC-3 prostate) 3.3 µM | GI50 (KM12 colon) 15.5 µM | GI50 (SF-539 CNS) 2.53 µM | GI50 (ACHN renal) > 100 µM | GI50 (HOP-62 NSCLC) 3.71 µM | GI50 (DU-145 prostate) > 100 µM | GI50 (UO-31 renal) > 100 µM | GI50 (MDA-MB-231 breast) 3.81 µM | GI50 (MDA-MB-435) > 100 µM | GI50 (M14 melanoma) 4.63 µM | GI50 (OVCAR-8 ovarian) 4.03 µM | GI50 (NCI-H460 lung) 3.28 µM | GI50 (SK-MEL-2 melanoma) > 100 µM | GI50 (UACC-62 melanoma) 9.26 µM | GI50 (LOX IMVI melanoma) 5.45 µM | GI50 (SR leukemia) 3.19 µM | GI50 (HCT-116 colon) 1.95 µM | GI50 (MOLT-4 leukemia) > 100 µM | GI50 (CAKI-1 renal) > 100 µM | GI50 (786-0 renal) 2.46 µM | GI50 (SN12C renal) > 100 µM | GI50 (NCI-H23 lung) 2.78 µM | GI50 (A498 renal) 2.51 µM | GI50 (NCI-H522 lung) 4.12 µM | GI50 (NCI/ADR-RES ovarian) > 100 µM | GI50 (HL-60(TB) leukemia) > 100 µM | GI50 (COLO 205 colon) 6.99 µM | GI50 (HCT-15 colon) > 100 µM | GI50 (CCRF-CEM leukemia) 25.1 µM | GI50 (SF-295 CNS) 4.71 µM | GI50 (SK-MEL-5 melanoma) 4.89 µM | GI50 (IGROV1 ovarian) 28 µM | GI50 (K-562 leukemia) 12.6 µM | GI50 (OVCAR-5 ovarian) > 100 µM | GI50 (EKVX NSCLC) 18.1 µM | GI50 (NCI-H226 lung) 5.8 µM | GI50 (SW-620 colon) > 100 µM | GI50 (BT-549 breast) 3.65 µM | GI50 (SK-OV-3 ovarian) 3.37 µM
19.4 µM: TGI (MDA-MB-231 breast)
7.78 µM: TGI (786-0 renal)
15.5 µM: TGI (HOP-62 NSCLC)
10.7 µM: TGI (NCI-H23 lung)
46.2 µM: TGI (NCI-H226 lung)
4.85 µM: TGI (HCT-116 colon)
